Results published in PubChem BioAssay AID330 (DTP/NCI, 2004).
Several values for one entry are separate records, joined by “and”; a condition that tells them apart may be missing. Equal values may be shown once. Toxic doses and inconclusive results are not listed.

System: P388 leukemia ip, CD2F1 mice, survival T/C
Assay: NCI In Vivo Anticancer Drug Screen. Data for tumor model P388 Leukemia (intraperitoneal) in CD2F1 (CDF1) mice
Details: endpoint: median survival time, higher = longer survival
In short: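 Mice carrying the transplanted tumor received test compound or vehicle. Survival was recorded in each group, and the value is the treated-group measurement divided by that of the vehicle-treated control group.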

[1] = dose: 50.0 mg/kg/injection, schedule: Q01DX009 (ip), vehicle: saline with Tween-80
[2] = dose: 100.0 mg/kg/injection, schedule: Q01DX009 (ip), vehicle: saline with Tween-80
[3] = dose: 200.0 mg/kg/injection, schedule: Q01DX009 (ip), vehicle: saline with Tween-80
[4] = dose: 60.0 mg/kg/injection, schedule: Q01DX005 (ip), vehicle: saline with Tween-80
[5] = dose: 120.0 mg/kg/injection, schedule: Q01DX005 (ip), vehicle: saline with Tween-80
[6] = dose: 400.0 mg/kg/injection, schedule: Q01DX009 (ip), vehicle: saline with Tween-80
[7] = dose: 12.5 mg/kg/injection, schedule: Q01DX005 (ip), vehicle: Klucel (hydroxypropylcellulose) (HPC)
[8] = dose: 25.0 mg/kg/injection, schedule: Q01DX005 (ip), vehicle: Klucel (hydroxypropylcellulose) (HPC)
[9] = dose: 50.0 mg/kg/injection, schedule: Q01DX005 (ip), vehicle: Klucel (hydroxypropylcellulose) (HPC)
[10] = dose: 100.0 mg/kg/injection, schedule: Q01DX009 (ip), vehicle: Klucel (hydroxypropylcellulose) (HPC)
[11] = dose: 200.0 mg/kg/injection, schedule: Q01DX009 (ip), vehicle: Klucel (hydroxypropylcellulose) (HPC)
[12] = dose: 240.0 mg/kg/injection, schedule: Q01DX005 (ip), vehicle: saline with Tween-80
[13] = dose: 50.0 mg/kg/injection, schedule: Q01DX009 (ip), vehicle: Klucel (hydroxypropylcellulose) (HPC)
[14] = dose: 50.0 mg/kg/injection, schedule: Q01DX005 (ip), vehicle: saline with Tween-80
[15] = dose: 100.0 mg/kg/injection, schedule: Q01DX005 (ip), vehicle: saline with Tween-80
[16] = dose: 200.0 mg/kg/injection, schedule: Q01DX005 (ip), vehicle: saline with Tween-80

O=C(N/N=C/c1ccc(/C=N/NC(=O)c2cccnc2)cc1)c1cccnc1
T/C [1]: 102 % of control | T/C [2]: 96 % of control | T/C [3]: 93 % of control

CN(C)C=Nc1ccccc1C#N
T/C [1]: 105 % of control | T/C [2]: 106 % of control | T/C [3]: 97 % of control

O=C1CCC2CN3CCc4c([nH]c5ccccc45)C3CC2C1 (stereo not drawn)
T/C [4]: 100 % of control | T/C [5]: 106 % of control

Cc1ccc(S(=O)(=O)ONNc2nccc3ccccc23)cc1
T/C (dose: 100.0 mg/kg/injection, schedule: Q04DX002 (ip), vehicle: saline): 103 % of control | T/C (dose: 200.0 mg/kg/injection, schedule: Q04DX002 (ip), vehicle: saline): 96 % of control | T/C (dose: 400.0 mg/kg/injection, schedule: Q04DX002 (ip), vehicle: saline): 97 % of control

Nc1nc(SC2CCCCC2)c2[nH]cnc2n1
T/C [2]: 90 % of control | T/C (dose: 100.0 mg/kg/injection, schedule: Q04DX003 (ip), vehicle: saline with Tween-80): 100 % of control | T/C [3]: 95 % of control | T/C (dose: 200.0 mg/kg/injection, schedule: Q04DX003 (ip), vehicle: saline with Tween-80): 116 % of control | T/C [6]: 90 % of control | T/C (dose: 400.0 mg/kg/injection, schedule: Q04DX003 (ip), vehicle: saline with Tween-80): 108 % of control

O=C(NCCCl)Oc1ccc(Cl)cc1Cl
T/C [7]: 100 % of control | T/C [8]: 106 % of control | T/C [9]: 108 % of control and 113 % of control

COc1cc2ccccc2c2c1OP(=O)(O)Oc1c(OC)cc3ccccc3c1-2
T/C (dose: 100.0 mg/kg/injection, schedule: Q01DX001 (ip), vehicle: saline with Tween-80): 100 % of control | T/C (dose: 200.0 mg/kg/injection, schedule: Q01DX001 (ip), vehicle: saline with Tween-80): 92 % of control | T/C (dose: 400.0 mg/kg/injection, schedule: Q01DX001 (ip), vehicle: saline with Tween-80): 114 % of control

CNP1(NC)=NP(NC)(NC)=NP(NC)(NC)=NP(NC)(NC)=N1
T/C (dose: 50.0 mg/kg/injection, schedule: Q01DX005 (ip), vehicle: saline): 115 % of control | T/C (dose: 100.0 mg/kg/injection, schedule: Q01DX005 (ip), vehicle: saline): 110 % of control | T/C (dose: 200.0 mg/kg/injection, schedule: Q01DX005 (ip), vehicle: saline): 104 % of control

CCOC(=O)c1cc(OC(C)=O)c2c(ccc3ccccc32)c1C
T/C [10]: 95 % of control | T/C [11]: 90 % of control | T/C (dose: 400.0 mg/kg/injection, schedule: Q01DX009 (ip), vehicle: Klucel (hydroxypropylcellulose) (HPC)): 95 % of control

Cc1ccc2ccc(N(C)C)cc2n1
T/C [1]: 100 % of control | T/C [2]: 107 % of control

Nc1cc2ncccc2c2ccccc12
T/C (dose: 50.0 mg/kg/injection, schedule: Q01DX009 (ip), vehicle: saline): 100 % of control and 98 % of control | T/C (dose: 100.0 mg/kg/injection, schedule: Q01DX009 (ip), vehicle: saline): 109 % of control | T/C (dose: 200.0 mg/kg/injection, schedule: Q01DX009 (ip), vehicle: saline): 106 % of control and 89 % of control

CCCC(C(CC)CNC(=O)Nc1cccc2ccccc12)N(C)C(=O)Nc1cccc2ccccc12 (stereo not drawn)
T/C [1]: 93 % of control | T/C [2]: 92 % of control | T/C [3]: 94 % of control | T/C [6]: 99 % of control

FC(F)(F)c1cc(NC(=S)SCc2ccc3c(c2)OCO3)ccc1Cl
T/C (dose: 50.0 mg/kg/injection, schedule: Q01DX009 (ip), vehicle: suspension in saline): 100 % of control | T/C (dose: 100.0 mg/kg/injection, schedule: Q01DX009 (ip), vehicle: suspension in saline): 100 % of control | T/C (dose: 200.0 mg/kg/injection, schedule: Q01DX009 (ip), vehicle: suspension in saline): 100 % of control

Cc1cc2nc(SCC(N)=O)nn2c(C)n1
T/C [4]: 100 % of control | T/C [5]: 100 % of control | T/C [12]: 99 % of control

Cc1nc2ccccc2c(=O)n1/N=C1\C(=O)N(C)c2ccccc21
T/C [7]: 100 % of control | T/C [8]: 96 % of control | T/C [9]: 91 % of control and 96 % of control | T/C (dose: 100.0 mg/kg/injection, schedule: Q01DX005 (ip), vehicle: Klucel (hydroxypropylcellulose) (HPC)): 105 % of control

NNC(=O)c1cccc2ccccc12
T/C (dose: 3.12 mg/kg/injection, schedule: Q01DX005 (ip), vehicle: saline): 101 % of control | T/C (dose: 6.25 mg/kg/injection, schedule: Q01DX005 (ip), vehicle: saline): 104 % of control | T/C (dose: 12.5 mg/kg/injection, schedule: Q01DX005 (ip), vehicle: saline): 98 % of control

CC(C)c1cc2c(c(O)c1O)C13CCCC(C)(C)C1CC2OC3=O (stereo not drawn)
T/C (dose: 7.0 mg/kg/injection, schedule: Q01DX005 (ip), vehicle: saline with Tween-80): 113 % of control | T/C (dose: 14.0 mg/kg/injection, schedule: Q01DX005 (ip), vehicle: saline with Tween-80): 111 % of control | T/C (dose: 28.0 mg/kg/injection, schedule: Q01DX005 (ip), vehicle: saline with Tween-80): 104 % of control

O=C1Nc2ccc(Cl)cc2C1=O
T/C [13]: 99 % of control and 98 % of control | T/C [10]: 105 % of control | T/C [11]: 118 % of control and 89 % of control

CCOC(=O)C1(CN(C)c2ccccc2)C(C(C)=O)=CNc2c(C#N)cnn21 (stereo not drawn)
T/C [14]: 99 % of control | T/C [15]: 98 % of control | T/C [16]: 106 % of control

COC1CC(C)C(OC)C2=CC(=O)C=C(NC(=O)/C(C)=C/C=C\C(C)C(OC(N)=O)/C(C)=C\C(C)C1OC)C2=O (stereo not drawn)
T/C (dose: 5.0 mg/kg/injection, schedule: Q01DX009 (ip), vehicle: saline + alcohol): 121 % of control | T/C (dose: 10.0 mg/kg/injection, schedule: Q01DX009 (ip), vehicle: saline + alcohol): 123 % of control | T/C (dose: 20.0 mg/kg/injection, schedule: Q01DX009 (ip), vehicle: saline + alcohol): 86 % of control

Nc1ccc2ccc(N)cc2c1
T/C (dose: 25.0 mg/kg/injection, schedule: Q01DX005 (ip), vehicle: saline with Tween-80): 105 % of control | T/C [14]: 98 % of control and 104 % of control | T/C [15]: 103 % of control and 113 % of control | T/C [16]: 122 % of control and 123 % of control

CC[N+](C)(C)c1ccccc1
T/C (dose: 6.25 mg/kg/injection, schedule: Q04DX002 (ip), vehicle: saline): 102 % of control | T/C (dose: 12.5 mg/kg/injection, schedule: Q04DX002 (ip), vehicle: saline): 105 % of control | T/C (dose: 25.0 mg/kg/injection, schedule: Q04DX002 (ip), vehicle: saline): 99 % of control and 102 % of control

C=[CH][Pb]([CH]=C)([CH]=C)[O]C(C)=O
T/C (dose: 1.25 mg/kg/injection, schedule: Q01DX009 (ip), vehicle: saline with Tween-80): 110 % of control and 111 % of control | T/C (dose: 2.5 mg/kg/injection, schedule: Q01DX009 (ip), vehicle: saline with Tween-80): 160 % of control | T/C (dose: 5.0 mg/kg/injection, schedule: Q01DX009 (ip), vehicle: saline with Tween-80): 151 % of control and 188 % of control

O=C(NC1=C(N2CC2)C(=O)C(NC(=O)OCCO)=C(N2CC2)C1=O)OCCO
T/C (dose: 0.18 mg/kg/injection, schedule: Q01DX009 (ip), vehicle: saline): 174 % of control | T/C (dose: 0.39 mg/kg/injection, schedule: Q01DX009 (ip), vehicle: saline): 170 % of control | T/C (dose: 0.75 mg/kg/injection, schedule: Q01DX009 (ip), vehicle: saline): 218 % of control | T/C (dose: 1.5 mg/kg/injection, schedule: Q01DX009 (ip), vehicle: saline): 169 % of control and 175 % of control | T/C (dose: 3.0 mg/kg/injection, schedule: Q01DX009 (ip), vehicle: saline): 202 % of control and 211 % of control | T/C (dose: 6.0 mg/kg/injection, schedule: Q01DX009 (ip), vehicle: saline): 239 % of control and 258 % of control

Cc1cc(O)ccc1Nc1ccc(N(CCCl)CCCl)cc1
T/C (dose: 200.0 mg/kg/injection, schedule: Q04DX003 (ip), vehicle: Klucel (hydroxypropylcellulose) (HPC)): 166 % of control | T/C (dose: 400.0 mg/kg/injection, schedule: Q04DX003 (ip), vehicle: Klucel (hydroxypropylcellulose) (HPC)): 154 % of control

O=C(CSc1nnc(-c2ccc(Cl)cc2)s1)Nc1nccs1
T/C [4]: 89 % of control | T/C [5]: 89 % of control | T/C [12]: 89 % of control

Cc1cc(-c2ccc(N3C(=O)CC4(CCCC4)C3=O)c(C)c2)ccc1N1C(=O)CC2(CCCC2)C1=O
T/C [13]: 97 % of control | T/C [10]: 96 % of control | T/C [11]: 96 % of control

O=C1C(CCl)(CCl)CCC1(CCl)CCl
T/C [14]: 100 % of control | T/C [15]: 105 % of control | T/C [16]: 94 % of control

Nc1nnc(-c2cc([N+](=O)[O-])cc([N+](=O)[O-])c2)o1
T/C [4]: 108 % of control | T/C [5]: 94 % of control | T/C [12]: 100 % of control
